Results taken from patent US12539292B2, “BRM targeting compounds and associated methods of use” (Arvinas Operations, Inc., priority 2018, dated 2026).

Target: T1, BRM (Homo sapiens, UniProt P51531)
T1 construct: In-Cell Western Screen of BRM Degradation in SW1573 Cells; endogenous in cells; host or cells: SW1573
Experiment: In-cell Western screen of BRM degradation in SW1573 cells (Dmax and DC50)
Assay type: cell-based
Conditions: BRM degradation, SW1573 cells; for Dmax: when tested at the top concentration of between 0.3 and 10 μM, read-out: Dmax (%) (% degraded); for DC50: read-out: DC50
Outline: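 BRM levels were read by LI-COR in-cell Western after two-channel (800/680 nm) immunostaining of fixed, Triton-permeabilised SW1573 cells.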

T1 sequence (P51531 whole entry): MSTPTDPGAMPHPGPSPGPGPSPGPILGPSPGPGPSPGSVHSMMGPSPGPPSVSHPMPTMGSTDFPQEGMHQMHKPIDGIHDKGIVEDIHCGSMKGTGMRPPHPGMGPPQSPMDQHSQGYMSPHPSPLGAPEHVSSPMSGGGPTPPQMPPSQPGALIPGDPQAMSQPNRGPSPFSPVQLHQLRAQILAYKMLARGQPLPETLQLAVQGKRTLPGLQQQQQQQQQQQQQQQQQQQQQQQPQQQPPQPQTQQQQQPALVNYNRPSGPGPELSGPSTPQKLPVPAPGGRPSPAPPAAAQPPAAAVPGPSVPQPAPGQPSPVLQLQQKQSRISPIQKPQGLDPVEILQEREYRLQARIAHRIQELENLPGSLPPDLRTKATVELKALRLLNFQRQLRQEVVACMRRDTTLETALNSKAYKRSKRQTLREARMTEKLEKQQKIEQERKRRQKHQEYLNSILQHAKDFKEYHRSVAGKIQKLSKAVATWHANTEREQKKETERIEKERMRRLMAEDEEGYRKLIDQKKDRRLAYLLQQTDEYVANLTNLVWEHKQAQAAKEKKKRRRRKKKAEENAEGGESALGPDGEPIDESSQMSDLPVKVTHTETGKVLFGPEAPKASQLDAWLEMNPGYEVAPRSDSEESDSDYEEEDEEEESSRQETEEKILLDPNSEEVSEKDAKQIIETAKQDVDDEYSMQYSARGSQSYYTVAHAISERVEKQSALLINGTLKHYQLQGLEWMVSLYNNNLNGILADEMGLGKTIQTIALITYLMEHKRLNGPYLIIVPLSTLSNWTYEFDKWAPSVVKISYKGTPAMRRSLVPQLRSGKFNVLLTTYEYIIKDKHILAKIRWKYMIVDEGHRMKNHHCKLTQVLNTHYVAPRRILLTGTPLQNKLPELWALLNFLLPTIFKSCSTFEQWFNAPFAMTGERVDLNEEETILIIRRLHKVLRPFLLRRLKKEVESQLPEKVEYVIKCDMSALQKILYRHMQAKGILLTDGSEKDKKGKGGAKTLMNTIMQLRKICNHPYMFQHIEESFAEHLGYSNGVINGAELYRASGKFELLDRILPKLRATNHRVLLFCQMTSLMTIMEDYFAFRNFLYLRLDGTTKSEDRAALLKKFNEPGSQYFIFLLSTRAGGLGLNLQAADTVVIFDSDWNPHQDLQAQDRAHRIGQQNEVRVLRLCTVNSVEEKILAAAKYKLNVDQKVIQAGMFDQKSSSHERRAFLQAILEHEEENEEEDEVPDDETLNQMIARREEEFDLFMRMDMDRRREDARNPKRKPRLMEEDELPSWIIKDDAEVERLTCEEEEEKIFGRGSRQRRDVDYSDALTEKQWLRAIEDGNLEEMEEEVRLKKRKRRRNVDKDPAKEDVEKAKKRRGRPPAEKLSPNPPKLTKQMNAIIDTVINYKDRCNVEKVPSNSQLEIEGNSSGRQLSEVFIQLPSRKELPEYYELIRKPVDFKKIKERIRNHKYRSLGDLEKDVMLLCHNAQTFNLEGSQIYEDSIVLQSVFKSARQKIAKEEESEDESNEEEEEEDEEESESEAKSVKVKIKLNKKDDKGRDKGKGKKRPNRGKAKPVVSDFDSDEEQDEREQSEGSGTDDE

Row | Compound | Dmax [%] | DC50 [nM]
1 | Cc1ncsc1-c1ccc(CNC(=O)[C@@H]2C[C@@H](O)CN2C(=O)[C@H](c2cc(OCCOCCOCCOc3cc(N4C5CCC4CN(c4cc(-c6ccccc6O)nnc4N)C5)ccn3)no2)C(C)C)cc1 [compound 27, (2S,4R)-1-[(2S)-2-[3-[2-(2-[2-[(4-[3-[3-amino-6-(2-hydroxyphenyl)pyridazin-4-yl]-3,8-diazabicyclo[3.2.1]octan-8-yl]pyridin-2-yl)oxy]ethoxy]ethoxy)ethoxy]-1,2-oxazol-5-yl]-3-methylbutanoyl]-4-hydroxy-N-[[4-(4-methyl-1,3-thiazol-5-yl)phenyl]methyl]pyrrolidine-2-carboxamide] | > 75 | > 30
2 | Cc1ncsc1-c1ccc(CNC(=O)[C@@H]2C[C@@H](O)CN2C(=O)[C@@H](c2cc(OCCOCCOCCOc3cc(N4C5CCC4CN(c4cc(-c6ccccc6O)nnc4N)C5)ccn3)no2)C(C)C)cc1 [compound 28, (2S,4R)-1-[(2R)-2-[3-[2-(2-[2-[(4-[3-[3-amino-6-(2-hydroxyphenyl)pyridazin-4-yl]-3,8-diazabicyclo[3.2.1]octan-8-yl]pyridin-2-yl)oxy]ethoxy]ethoxy)ethoxy]-1,2-oxazol-5-yl]-3-methylbutanoyl]-4-hydroxy-N-[[4-(4-methyl-1,3-thiazol-5-yl)phenyl]methyl]pyrrolidine-2-carboxamide] | > 75 | < 2.5
3 | Cc1ncsc1-c1ccc(CNC(=O)[C@@H]2C[C@@H](O)CN2C(=O)[C@H](c2cc(OCCOCCOCCOCCOc3cc(N4C5CCC4CN(c4cc(-c6ccccc6O)nnc4N)C5)ccn3)no2)C(C)C)cc1 [compound 29, (2S,4R)-1-[(2S)-2-(3-[[1-(4-[3-[3-amino-6-(2-hydroxyphenyl)pyridazin-4-yl]-3,8-diazabicyclo[3.2.1]octan-8-yl]pyridin-2-yl)-1,4,7,10-tetraoxadodecan-12-yl]oxy]-1,2-oxazol-5-yl)-3-methylbutanoyl]-4-hydroxy-N-[[4-(4-methyl-1,3-thiazol-5-yl)phenyl]methyl]pyrrolidine-2-carboxamide] | > 75 | 10 to 30
4 | Cc1ncsc1-c1ccc(CNC(=O)[C@@H]2C[C@@H](O)CN2C(=O)[C@@H](c2cc(OCCOCCOCCOCCOc3cc(N4C5CCC4CN(c4cc(-c6ccccc6O)nnc4N)C5)ccn3)no2)C(C)C)cc1 [compound 30, (2S,4R)-1-[(2R)-2-(3-[[1-(4-[3-[3-amino-6-(2-hydroxyphenyl)pyridazin-4-yl]-3,8-diazabicyclo[3.2.1]octan-8-yl]pyridin-2-yl)-1,4,7,10-tetraoxadodecan-12-yl]oxy]-1,2-oxazol-5-yl)-3-methylbutanoyl]-4-hydroxy-N-[[4-(4-methyl-1,3-thiazol-5-yl)phenyl]methyl]pyrrolidine-2-carboxamide] | > 75 | < 2.5
5 | Cc1ncsc1-c1ccc(CNC(=O)[C@@H]2C[C@@H](O)CN2C(=O)[C@@H](NC(=O)Cc2ccc(N3CCN(CCOCCCc4cc(N5C6CCC5CN(c5cc(-c7ccccc7O)nnc5N)C6)ccn4)CC3)nc2)C(C)(C)C)cc1 [compound 31, (2S,4R)-1-((2S)-2-(2-(6-(4-(2-(3-(4-(3-(3-amino-6-(2-hydroxyphenyl)pyridazin-4-yl)-3,8-diazabicyclo[3.2.1]octan-8-yl)pyridin-2-yl)propoxy)ethyl)piperazin-1-yl)pyridin-3-yl)acetamido)-3,3-dimethylbutanoyl)-4-hydroxy-N-(4-(4-methylthiazol-5-yl)benzyl)pyrrolidine-2-carboxamide] | > 75 | 10 to 30
6 | Cc1ncsc1-c1ccc(CNC(=O)[C@@H]2C[C@@H](O)CN2C(=O)[C@@H](NC(=O)COCCOCCOCCOc2cncc(N3C4CCC3CN(c3cc(-c5ccccc5O)nnc3N)C4)n2)C(C)(C)C)cc1 [compound 34, (2S,4R)-1-[(2S)-2-[1-(6-[3-[3-amino-6-(2-hydroxyphenyl)pyridazin-4-yl]-3,8-diazabicyclo[3.2.1]octan-8-yl]pyrazin-2-yl)-1,4,7,10-tetraoxadodecan-12-amido]-3,3-dimethylbutanoyl]-4-hydroxy-N-[[4-(4-methyl-1,3-thiazol-5-yl)phenyl]methyl]pyrrolidine-2-carboxamide] | > 75 | > 30
7 | Cc1ncsc1-c1ccc([C@H](C)NC(=O)[C@@H]2C[C@@H](O)CN2C(=O)[C@@H](NC(=O)COCCOCCOCCOCCOCCOCCOCCOc2cc(N3C4CCC3CN(c3cc(-c5ccccc5O)nnc3N)C4)ccn2)C(C)(C)C)cc1 [compound 35, (2S,4R)-1-[(2S)-2-[1-(4-[3-[3-amino-6-(2-hydroxyphenyl)pyridazin-4-yl]-3,8-diazabicyclo[3.2.1]octan-8-yl]pyridin-2-yl)-1,4,7,10,13,16,19,22-octaoxatetracosan-24-amido]-3,3-dimethylbutanoyl]-4-hydroxy-N-[(1S)-1-[4-(4-methyl-1,3-thiazol-5-yl)phenyl]ethyl]pyrrolidine-2-carboxamide] | > 75 | 2.5 to 10

Continued, in another order:

Row | Dmax [%] | Compound | DC50 [nM]
8 | < 50 | Cc1ncsc1-c1ccc(CNC(=O)[C@@H]2C[C@@H](O)CN2C(=O)[C@H](C(C)C)N2Cc3ccccc3C2=O)c(OCCOCCOCCn2cc(-c3cc(-c4ccccc4O)nnc3N)cn2)c1 [compound 21, (2S,4R)-N-(2-(2-(2-(2-(4-(3-amino-6-(2-hydroxyphenyl)pyridazin-4-yl)-1H-pyrazol-1-yl)ethoxy)ethoxy)ethoxy)-4-(4-methylthiazol-5-yl)benzyl)-4-hydroxy-1-((S)-3-methyl-2-(1-oxoisoindolin-2-yl)butanoyl)pyrrolidine-2-carboxamide] | 
9 | > 75 | Cc1ncsc1-c1ccc(CNC(=O)[C@@H]2C[C@@H](O)CN2C(=O)C(c2cc(CCCOCCOCCn3cc(-c4cc(-c5ccccc5O)nnc4N)cn3)no2)C(C)C)cc1 (stereo partly drawn) [compound 22, (2S,4R)-1-(2-(3-(3-(2-(2-(4-(3-amino-6-(2-hydroxyphenyl)pyridazin-4-yl)-1H-pyrazol-1-yl)ethoxy)ethoxy)propyl)isoxazol-5-yl)-3-methylbutanoyl)-4-hydroxy-N-(4-(4-methylthiazol-5-yl)benzyl)pyrrolidine-2-carboxamide] | > 30
10 | > 75 | Cc1ncsc1-c1ccc(CNC(=O)[C@@H]2C[C@@H](O)CN2C(=O)[C@H](c2cc(CCCOCCOCCOCCn3cc(-c4cc(-c5ccccc5O)nnc4N)cn3)no2)C(C)C)cc1 [compound 23, (2S,4R)-1-[(2S)-2-[3-(3-[2-[2-(2-[4-[3-amino-6-(2-hydroxyphenyl)pyridazin-4-yl]-1H-pyrazol-1-yl]ethoxy)ethoxy]ethoxy]propyl)-1,2-oxazol-5-yl]-3-methylbutanoyl]-4-hydroxy-N-[[4-(4-methyl-1,3-thiazol-5-yl)phenyl]methyl]pyrrolidine-2-carboxamide] | > 30
11 | > 75 | Cc1ncsc1-c1ccc(CNC(=O)[C@@H]2C[C@@H](O)CN2C(=O)[C@@H](c2cc(CCCOCCOCCOCCn3cc(-c4cc(-c5ccccc5O)nnc4N)cn3)no2)C(C)C)cc1 [compound 24, (2S,4R)-1-[(2R)-2-[3-(3-[2-[2-(2-[4-[3-amino-6-(2-hydroxyphenyl)pyridazin-4-yl]-1H-pyrazol-1-yl]ethoxy)ethoxy]ethoxy]propyl)-1,2-oxazol-5-yl]-3-methylbutanoyl]-4-hydroxy-N-[[4-(4-methyl-1,3-thiazol-5-yl)phenyl]methyl]pyrrolidine-2-carboxamide] | 2.5 to 10
12 | > 75 | Cc1ncsc1-c1ccc(CNC(=O)[C@@H]2C[C@@H](O)CN2C(=O)[C@H](c2cc(CCCOCCOCCOCCOCCn3cc(-c4cc(-c5ccccc5O)nnc4N)cn3)no2)C(C)C)cc1 [compound 25] | > 30
13 | > 75 | Cc1ncsc1-c1ccc(CNC(=O)[C@@H]2C[C@@H](O)CN2C(=O)[C@@H](c2cc(CCCOCCOCCOCCOCCn3cc(-c4cc(-c5ccccc5O)nnc4N)cn3)no2)C(C)C)cc1 [compound 26, (2S,4R)-1-[(2R)-2-[3-(1-[4-[3-amino-6-(2-hydroxyphenyl)pyridazin-4-yl]-1H-pyrazol-1-yl]-3,6,9,12-tetraoxapentadecan-15-yl)-1,2-oxazol-5-yl]-3-methylbutanoyl]-4-hydroxy-N-[[4-(4-methyl-1,3-thiazol-5-yl)phenyl]methyl]pyrrolidine-2-carboxamide] | 10 to 30
14 | > 75 | Cc1ncsc1-c1ccc(CNC(=O)[C@@H]2C[C@@H](O)CN2C(=O)[C@@H](NC(=O)COCCOCCOCCOc2cccc(N3C[C@H]4C[C@@H]3CN4c3cc(-c4ccccc4O)nnc3N)n2)C(C)(C)C)cc1 [compound 32, (2S,4R)-1-[(2S)-2-(1-[6-[(1R,4R)-5-[3-amino-6-(2-hydroxyphenyl)pyridazin-4-yl]-2,5-diazabicyclo[2.2.1]heptan-2-yl]pyridin-2-yl]-1,4,7,10-tetraoxadodecan-12-amido)-3,3-dimethylbutanoyl]-4-hydroxy-N-[[4-(4-methyl-1,3-thiazol-5-yl)phenyl]methyl]pyrrolidine-2-carboxamide] | > 30
15 | > 75 | Cc1ncsc1-c1ccc(CNC(=O)[C@@H]2C[C@@H](O)CN2C(=O)[C@@H](NC(=O)COCCCc2ccc(C(C)n3cc(-c4cc(-c5ccccc5O)nnc4N)cn3)cc2)C(C)(C)C)cc1 (stereo partly drawn) [compound 33, (2S,4R)-1-[(2S)-2-(2-[3-[4-(1-[4-[3-amino-6-(2-hydroxyphenyl)pyridazin-4-yl]-1H-pyrazol-1-yl]ethyl)phenyl]propoxy]acetamido)-3,3-dimethylbutanoyl]-4-hydroxy-N-[[4-(4-methyl-1,3-thiazol-5-yl)phenyl]methyl]pyrrolidine-2-carboxamide] | 2.5 to 10
